This experiment addresses T1, human S1P1 receptor (Homo sapiens, UniProt P21453).
T1 construct: expressed in transfected cells; membranes used
As to the kind of experiment: GTP γ35S binding assay for S1P1 activity. Format: biochemical. As to conditions: membranes of cells stably expressing the S1P1 receptor, agonist potency. How it is done: Compounds of the invention were tested for S1P1 activity using the GTP γ^35S binding assay. These compounds may be assessed for their ability to activate or block activation of the human S1P1 receptor in cells stably expressing the S1P1 receptor.
GTP γ^35S binding was measured in the medium containing (mM) HEPES 25, pH 7.4, MgCl2 10, NaCl 100, dithitothreitol 0.5, digitonin 0.003%, 0.2 nM GTP γ^35S, and 5 μg membrane protein in a volume of 150 μl. Test compounds were included in the concentration range from 0.08 to 5,000 nM unless indicated otherwise. Membranes were incubated with 100 μM 5′-adenylylimmidodiphosphate for 30 min, and subsequently with 10 μM GDP for 10 min on ice.
Drug solutions and membrane were mixed, and then reactions were initiated by adding GTP γ^35S and continued for 30 min at 25° C. Reaction mixtures were filtered over Whatman GF/B filters under vacuum, and washed three times with 3 mL of ice-cold buffer (HEPES 25, pH7.4, MgCl2 10 and NaCl 100). Filters were dried and mixed with scintillant, and counted for ^35S activity using a β-counter. Agonist-induced GTP γ^35S binding was obtained by subtracting that in the absence of agonist. Binding data were analyzed using a non-linear regression method. In case of antagonist assay, the reaction mixture contained 10 nM S1P in the presence of test antagonist at concentrations ranging from 0.08 to 5000 nM.
(In general: Binding of GTPγS marks nucleotide exchange on a G protein.)

Results on two compounds are retold here after patent US20140235588A1, “SUBSTITUTED 1H-PYRAZOL-1,2,4-OXADIAZOLE DERIVATIVES AS SPHINGOSINE RECEPTOR MODULATORS” (Allergan, Inc., priority 2013, published 2014).

T1 sequence (P21453 whole entry): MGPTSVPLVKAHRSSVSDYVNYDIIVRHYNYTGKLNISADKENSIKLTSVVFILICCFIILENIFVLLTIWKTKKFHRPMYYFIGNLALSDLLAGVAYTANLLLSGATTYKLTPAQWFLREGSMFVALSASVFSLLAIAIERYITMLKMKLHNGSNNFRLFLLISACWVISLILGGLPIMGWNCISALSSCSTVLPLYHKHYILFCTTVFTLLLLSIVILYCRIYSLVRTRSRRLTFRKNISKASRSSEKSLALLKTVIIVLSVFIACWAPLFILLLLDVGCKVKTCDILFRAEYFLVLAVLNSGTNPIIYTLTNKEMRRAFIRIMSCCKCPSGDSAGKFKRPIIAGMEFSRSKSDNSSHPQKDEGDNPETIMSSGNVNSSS

The compound `Cn1nc(-c2nc(-c3ccc(CNCCCP(=O)(O)O)cc3)no2)cc1-c1ccccc1` [Compound 1, [3-({4-[5-(1-Methyl-5-phenyl-1H-pyrazol-3-yl)-1,2,4-oxadiazol-3-yl]benzyl}amino)propyl]phosphonic acid] registered an EC50 of 32 nM.

As to `Cn1nc(-c2nc(-c3ccc(CNCCC(=O)O)cc3)no2)cc1-c1ccccc1` [Compound 2, 3-({4-[5-(1-methyl-5-phenyl-1H-pyrazol-3-yl)-1,2,4-oxadiazol-3-yl]benzyl}amino)propanoic acid], the EC50 came to 658 nM.

The EC50 is the concentration needed to bring the measured effect to its halfway point. Higher therefore signals weaker potency.
